According to article PMC6688997 (Nature Communications, 2019):
Where “and” joins values, the source holds several entries; their conditions need not be identical. Identical values can stand only once.

What was measured:
[1] = system: Ba/F3 TPM3-NTRK1 G595L cells; test: CellTiter-Glo cell viability assay; assay type: cell-based, murine; conditions: Mus musculus, BaF3, 72 h
KM12 cells (TPM3-NTRK1) = test: CellTiter-Glo cell viability assay; assay type: cell-based; conditions: Homo sapiens, KM12, 72 h
Protocol: All media were supplemented with 100 U/ml penicillin, and 100 µg/ml streptomycin. All cells were routinely tested and verified to be free of mycoplasma contamination. […] To assess cell viability after 72-h drug treatment, 2000–5000 cells were plated in replicates of three to six in 96-well plates. Following the drug treatments, the cells were incubated with CellTiter-Glo assay reagent (Promega, Madison, WI, USA) for 10 min. […] IC50 values were determined using a nonlinear regression model with a sigmoidal dose response in GraphPad.

[2] = Body weight of Ba/F3-CD74-ROS1-WT xenograft mice; assay type: in vivo, mouse; conditions: for Body Weight Change(%) (average / SD): N 6

In the case of `C[C@@H](N)COc1ccc(-c2cnc3ccc(N[C@H](C)c4cccc(F)c4)nn23)cc1.O=C(O)CCCCC(=O)O` [DS-6051b], the IC50 [1] is reported as 29.2 nM, the IC50 (KM12 cells (TPM3-NTRK1)) is reported as 3 to 20 nM and the “Body Weight Change(%) (average / SD)” value ([2]; DS-6051b 3 mg/kg po, day 0, average) is reported as 0.0%. For the same molecule, the “Body Weight Change(%) (individual)” value ([2]; DS-6051b 3 mg/kg po, day 0, individual animals) was 0%, the “Body Weight Change(%) (average / SD)” value ([2]; DS-6051b 3 mg/kg po, day 1, average) was -1.4% and the “Body Weight Change(%) (individual)” value ([2]; DS-6051b 3 mg/kg po, day 1, individual animals) was -0.5% and 0.5% and -2.3% and -3.9% and -1.5%. The “Body Weight Change(%) (average / SD)” value ([2]; DS-6051b 3 mg/kg po, day 2, average) was 0.1%, the “Body Weight Change(%) (individual)” value ([2]; DS-6051b 3 mg/kg po, day 2, individual animals) was 0.5% and 3.8% and 1.4% and -3.2% and -0.4% and -1.5% and the “Body Weight Change(%) (average / SD)” value ([2]; DS-6051b 3 mg/kg po, day 3, average) was 0.9%. For the same molecule, the “Body Weight Change(%) (individual)” value ([2]; DS-6051b 3 mg/kg po, day 3, individual animals) was 1.9% and 4.3% and 1.4% and -2.7% and 0.4% and 0%, the “Body Weight Change(%) (average / SD)” value ([2]; DS-6051b 3 mg/kg po, day 4, average) was 1.5% and the “Body Weight Change(%) (individual)” value ([2]; DS-6051b 3 mg/kg po, day 4, individual animals) was 1.4% and 4.8% and 2.8% and -2.3% and 0.4% and 2%. The “Body Weight Change(%) (average / SD)” value ([2]; DS-6051b 10 mg/kg po, day 0, average) was 0.0%, the “Body Weight Change(%) (individual)” value ([2]; DS-6051b 10 mg/kg po, day 0, individual animals) was 0% and the “Body Weight Change(%) (average / SD)” value ([2]; DS-6051b 10 mg/kg po, day 1, average) was -2.6%. The “Body Weight Change(%) (individual)” value ([2]; DS-6051b 10 mg/kg po, day 1, individual animals) was -2.0% and -2.4% and -3.0% and -0.5% and -4.6% and -2.9%, the “Body Weight Change(%) (average / SD)” value ([2]; DS-6051b 10 mg/kg po, day 2, average) was -0.7% and the “Body Weight Change(%) (individual)” value ([2]; DS-6051b 10 mg/kg po, day 2, individual animals) was 0.5% and -1.4% and -0.5% and 2.5% and -1.8% and -3.4%. For the same molecule, the “Body Weight Change(%) (average / SD)” value ([2]; DS-6051b 10 mg/kg po, day 3, average) was 0.3%, the “Body Weight Change(%) (individual)” value ([2]; DS-6051b 10 mg/kg po, day 3, individual animals) was 1.5% and -0.5% and 2.5% and -0.9% and the “Body Weight Change(%) (average / SD)” value ([2]; DS-6051b 10 mg/kg po, day 4, average) was -1.0%. The “Body Weight Change(%) (individual)” value ([2]; DS-6051b 10 mg/kg po, day 4, individual animals) was 1.0% and -2.4% and -2.5% and 1.5% and -1.8% and -1.9%, the “Body Weight Change(%) (average / SD)” value ([2]; DS-6051b 30 mg/kg po, day 0, average) was 0.0% and the “Body Weight Change(%) (individual)” value ([2]; DS-6051b 30 mg/kg po, day 0, individual animals) was 0%. For the same molecule, the “Body Weight Change(%) (average / SD)” value ([2]; DS-6051b 30 mg/kg po, day 1, average) was -3.0%, the “Body Weight Change(%) (individual)” value ([2]; DS-6051b 30 mg/kg po, day 1, individual animals) was -1.9% and -2.5% and -2.8% and -3.4% and -2.6% and -5% and the “Body Weight Change(%) (average / SD)” value ([2]; DS-6051b 30 mg/kg po, day 2, average) was -2.1%. The “Body Weight Change(%) (individual)” value ([2]; DS-6051b 30 mg/kg po, day 2, individual animals) was -2.4% and -1.0% and -2.8% and -1.9% and -2.1% and -2.5%, the “Body Weight Change(%) (average / SD)” value ([2]; DS-6051b 30 mg/kg po, day 3, average) was -2.0% and the “Body Weight Change(%) (individual)” value ([2]; DS-6051b 30 mg/kg po, day 3, individual animals) was -1.0% and -2.3% and -2.9% and -1.5% and -3%. For the same molecule, the “Body Weight Change(%) (average / SD)” value ([2]; DS-6051b 30 mg/kg po, day 4, average) was -3.2%, the “Body Weight Change(%) (individual)” value ([2]; DS-6051b 30 mg/kg po, day 4, individual animals) was -1.0% and -2.5% and -3.8% and -3.9% and -2.1% and -6% and the “Body Weight Change(%) (average / SD)” value ([2]; DS-6051b 100 mg/kg po, day 0, average) was 0.0%. For the same molecule, the “Body Weight Change(%) (individual)” value ([2]; DS-6051b 100 mg/kg po, day 0, individual animals) was 0%, the “Body Weight Change(%) (average / SD)” value ([2]; DS-6051b 100 mg/kg po, day 1, average) was -3.0% and the “Body Weight Change(%) (individual)” value ([2]; DS-6051b 100 mg/kg po, day 1, individual animals) was -2.9% and -3.5% and -2.3% and -5.8% and -1.8% and -1.5%. The “Body Weight Change(%) (average / SD)” value ([2]; DS-6051b 100 mg/kg po, day 2, average) was -2.4% and the “Body Weight Change(%) (individual)” value ([2]; DS-6051b 100 mg/kg po, day 2, individual animals) was -2.5% and -1.5% and -3.6% and -3.1% and -2.3%.
